Data set [1] addresses T1, recombinant human CB1 receptors (Homo sapiens, UniProt P21554).
T1 construct: expressed in transfected cells; host or cells: HEK293 cells
Briefly: Binding to recombinant human CB1 receptors ([3H]-SR-141716A displacement, HEK293 membranes). The conditions noted are these: [3H]-SR-141716A 1 nM; membranes of HEK293 cells expressing hCB1; Ki from IC50 by Cheng-Prusoff. On the procedure:
The binding of compounds of Formula I to recombinant human CB1 receptors was determined in vitro by standard methods, with reference to the procedure described by Rinaldi-Carmona et al. (Rinaldi-Carmona, M., Pialot, F., Congy, C., Redon, E., Bart, F., Bachy, A., Breliere, J. C., Soubre, P., LeFur, G., Life Sci. 1996, 58(15), 1239-1247). Membranes were prepared from HEK293 cells expressing recombinant hCB1 receptors. Binding assays are performed in a total volume of 250 μL, containing [^3H]-SR-141716A (1 nM final concentration), membranes and test compound. Non-specific binding is determined using CP55,940 (10 μM). Serial dilutions are performed starting from test compounds as 10 mM solutions in DMSO. Compounds are tested over the concentration range 10^−10 M to 10^−5 M. Ki values are calculated from IC50 values using the Cheng-Prusoff equation.

T1 sequence (P21554 whole entry): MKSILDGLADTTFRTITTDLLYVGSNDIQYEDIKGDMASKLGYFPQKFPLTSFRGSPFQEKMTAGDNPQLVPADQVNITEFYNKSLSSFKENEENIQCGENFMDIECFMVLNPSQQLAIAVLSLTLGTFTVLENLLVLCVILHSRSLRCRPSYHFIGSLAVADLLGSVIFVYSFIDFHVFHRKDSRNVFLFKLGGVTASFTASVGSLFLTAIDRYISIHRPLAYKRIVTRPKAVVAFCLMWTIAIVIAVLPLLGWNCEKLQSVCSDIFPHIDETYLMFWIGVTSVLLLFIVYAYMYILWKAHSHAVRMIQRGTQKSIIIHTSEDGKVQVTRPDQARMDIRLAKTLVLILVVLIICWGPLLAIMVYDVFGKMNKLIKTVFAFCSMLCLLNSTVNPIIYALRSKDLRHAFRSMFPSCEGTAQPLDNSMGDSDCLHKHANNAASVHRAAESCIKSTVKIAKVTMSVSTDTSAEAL

A word on the Ki: it is the equilibrium dissociation constant of an inhibitor or competing ligand from its target. On to `C=CCNC(=O)N1CC(OC(c2ccc(Cl)cc2)c2ccc(Cl)cc2)C1` [Example 6, 3-(Bis(4-chlorophenyl)methoxy)-N-(2-propenyl)azetidine-1-carboxamide], for which the Ki in data set [1] came to 285 nM.
One may read the melting point as the temperature of the solid-liquid transition. Take `C[C@@H](O)CNC(=O)N1CC(OCc2ccc(Cl)cc2)C1` [Example 36]: the melting point lay within 76 to 78 °C.
The same measure, in the same setting: with `CCC(OC1CN(C(N)=O)C1)c1cccc(C(F)(F)F)c1` (stereo not shown) [Example 42] the figure was 110.5 to 112 °C.
In turn, `NC(=O)N1CC(OCc2cccc(Cl)c2)C1` [Example 44, 3-((3-chlorophenyl)methoxy)-azetidine-1-carboxamide] registered a melting point of 163 to 165.5 °C.
